Reference: ChEMBL document CHEMBL1149262, “Monoamine transporter binding, locomotor activity, and drug discrimination properties of 3-(4-substituted-phenyl)tropane-2-carboxylic acid methyl ester isomers” (J Med Chem, 2004)
Activity calls are given as the source filed them. No cut-off for these calls is given here.

Tests used:
[1] = tested on: Rattus norvegicus; experiment: Drug discrimination effect in CD Albino rat assessed as percent of rat choosing cocaine lever at 17 mg/kg, ip; type: functional; conditions: route intraperitoneal
[2] = tested on: Mus musculus; experiment: Locomotor activity in CD1 mouse assessed as stimulation at 1 mg/kg, ip after 4 hrs relative to control; type: functional; conditions: route intraperitoneal
[3] = tested on: Mus musculus; experiment: Locomotor activity in CD1 mouse assessed as stimulation at 30 mg/kg, ip after 1 hr relative to control; type: functional; conditions: route intraperitoneal
[4] = tested on: Mus musculus; experiment: Activity in CD1 mouse assessed as ataxia at 100 mg/kg, ip after 4 hrs; type: functional, organism-based; set-up: dose 100 mg/kg
[5] = tested on: Mus musculus; experiment: Locomotor activity in CD1 mouse assessed as stimulation at 10 mg/kg, ip after 2 hrs relative to control; type: functional; conditions: route intraperitoneal
[6] = tested on: Mus musculus; experiment: Activity in CD1 mouse assessed as stimulation at 100 mg/kg, ip after 4 hrs; type: functional, organism-based; set-up: dose 100 mg/kg
[7] = tested on: Mus musculus; experiment: Locomotor activity in CD1 mouse assessed as stimulation at 10 mg/kg, ip after 4 hrs relative to control; type: functional; conditions: route intraperitoneal
[8] = tested on: Mus musculus; experiment: Locomotor activity in CD1 mouse assessed as stimulation at 30 mg/kg, ip after 3 hrs relative to control; type: functional; conditions: route intraperitoneal
[9] = tested on: Mus musculus; experiment: Locomotor activity in CD1 mouse assessed as stimulation at 3 mg/kg, ip after 1 hr relative to control; type: functional; conditions: route intraperitoneal
[10] = tested on: Mus musculus; experiment: Locomotor activity in CD1 mouse assessed as stimulation at 10 mg/kg, ip after 1 hr relative to control; type: functional; conditions: route intraperitoneal
[11] = tested on: Mus musculus; experiment: Locomotor activity in CD1 mouse assessed as stimulation at 30 mg/kg, ip after 2 hrs relative to control; type: functional; conditions: route intraperitoneal
[12] = tested on: Mus musculus; experiment: Locomotor activity in CD1 mouse assessed as stimulation at 1 mg/kg, ip after 3 hrs relative to control; type: functional; conditions: route intraperitoneal
[13] = tested on: Mus musculus; experiment: Locomotor activity in CD1 mouse assessed as stimulation at 3 mg/kg, ip after 4 hrs relative to control; type: functional; conditions: route intraperitoneal
[14] = tested on: Mus musculus; experiment: Locomotor activity in CD1 mouse assessed as stimulation at 1 mg/kg, ip after 2 hrs relative to control; type: functional; conditions: route intraperitoneal
[15] = tested on: Mus musculus; experiment: Activity in CD1 mouse assessed as tremor at 100 mg/kg, ip after 4 hrs; type: functional, organism-based; set-up: dose 100 mg/kg
[16] = target: Sodium-dependent noradrenaline transporter (Homo sapiens, UniProt P23975); experiment: Displacement of [3H]nisoxetine from NET
[17] = tested on: Mus musculus; experiment: Locomotor activity in CD1 mouse assessed as stimulation at 30 mg/kg, ip after 4 hrs relative to control; type: functional; conditions: route intraperitoneal
[18] = tested on: Mus musculus; experiment: Locomotor activity in CD1 mouse assessed as stimulation at 3 mg/kg, ip after 3 hrs relative to control; type: functional; conditions: route intraperitoneal
[19] = tested on: Mus musculus; experiment: Locomotor activity in CD1 mouse assessed as stimulation at 3 mg/kg, ip after 2 hrs relative to control; type: functional; conditions: route intraperitoneal
[20] = tested on: Rattus norvegicus; experiment: Drug discrimination effect in CD Albino rat assessed as percent of rat choosing cocaine lever at 5.6 mg/kg, ip; type: functional; conditions: route intraperitoneal
[21] = tested on: Mus musculus; experiment: Activity in CD1 mouse assessed as circling at 100 mg/kg, ip after 4 hrs; type: functional, organism-based; set-up: dose 100 mg/kg
[22] = tested on: Rattus norvegicus; experiment: Cocaine discrimination in ip dosed CD Albino rat; type: functional
[23] = tested on: Mus musculus; experiment: Locomotor activity in ip dosed CD1 mouse in peak hour; type: functional
[24] = tested on: Mus musculus; experiment: Locomotor activity in CD1 mouse assessed as stimulation at 10 mg/kg, ip after 3 hrs relative to control; type: functional; conditions: route intraperitoneal
[25] = tested on: Mus musculus; experiment: Activity in CD1 mouse assessed as hind limb splay at 100 mg/kg, ip after 4 hrs; type: functional, organism-based; set-up: dose 100 mg/kg; conditions: Hindlimb
[26] = tested on: Mus musculus; experiment: Activity in CD1 mouse assessed as convulsions at 100 mg/kg, ip after 4 hrs; type: functional, organism-based; set-up: dose 100 mg/kg
[27] = tested on: Mus musculus; experiment: Locomotor activity in CD1 mouse assessed as stimulation at 1 mg/kg, ip after 1 hr relative to control; type: functional; conditions: route intraperitoneal
[28] = target: Sodium-dependent dopamine transporter (Homo sapiens, UniProt Q01959); experiment: Displacement of [3H]WIN-35428 from DAT
[29] = tested on: Rattus norvegicus; experiment: Drug discrimination effect in CD Albino rat assessed as percent of rat choosing cocaine lever at 10 mg/kg, ip; type: functional; conditions: route intraperitoneal
[30] = tested on: Mus musculus; experiment: Locomotor activity in CD1 mouse assessed as stimulation at 0.1 mg/kg, ip after 4 hrs relative to control; type: functional; conditions: route intraperitoneal
[31] = tested on: Rattus norvegicus; experiment: Drug discrimination effect in CD Albino rat assessed as percent of rat choosing cocaine lever at 0.3 mg/kg, ip; type: functional; conditions: route intraperitoneal
[32] = tested on: Mus musculus; experiment: Activity in CD1 mouse assessed as hyperactivity at 1 mg/kg, ip after 4 hrs; type: functional, organism-based; set-up: dose 1 mg/kg
[33] = tested on: Mus musculus; experiment: Locomotor activity in CD1 mouse assessed as stimulation at 0.1 mg/kg, ip after 2 hrs relative to control; type: functional; conditions: route intraperitoneal
[34] = tested on: Mus musculus; experiment: Locomotor activity in ip dosed CD1 mouse after 1 hr relative to cocaine; type: functional
[35] = tested on: Mus musculus; experiment: Activity in CD1 mouse assessed as stereotypy at 100 mg/kg, ip after 4 hrs; type: functional, organism-based; set-up: dose 100 mg/kg
[36] = tested on: Mus musculus; experiment: Locomotor activity in CD1 mouse assessed as stimulation at 0.3 mg/kg, ip after 1 hr relative to control; type: functional; conditions: route intraperitoneal
[37] = tested on: Mus musculus; experiment: Locomotor activity in CD1 mouse assessed as stimulation at 0.1 mg/kg, ip after 3 hrs relative to control; type: functional; conditions: route intraperitoneal
[38] = tested on: Rattus norvegicus; experiment: Drug discrimination effect in CD Albino rat assessed as percent of rat choosing cocaine lever at 0.17 mg/kg, ip; type: functional; conditions: route intraperitoneal
[39] = tested on: Mus musculus; experiment: Activity in CD1 mouse assessed as stereotypy at 1 mg/kg, ip after 4 hrs; type: functional, organism-based; set-up: dose 1 mg/kg
[40] = tested on: Mus musculus; experiment: Activity in CD1 mouse assessed as slight or intermittent hyperactivity at 100 mg/kg, ip after 4 hrs; type: functional, organism-based; set-up: dose 100 mg/kg
[41] = tested on: Mus musculus; experiment: Locomotor activity in CD1 mouse assessed as stimulation at 0.1 mg/kg, ip after 1 hr relative to control; type: functional; conditions: route intraperitoneal
[42] = tested on: Mus musculus; experiment: Activity in CD1 mouse assessed as death at 100 mg/kg, ip after 4 hrs; type: functional, organism-based; set-up: dose 100 mg/kg
[43] = tested on: Mus musculus; experiment: Activity in CD1 mouse assessed as slight or intermittent hyperactivity at 10 mg/kg, ip after 4 hrs; type: functional, organism-based; set-up: dose 10 mg/kg
[44] = tested on: Rattus norvegicus; experiment: Drug discrimination effect in CD Albino rat assessed as percent of rat choosing cocaine lever at 0.1 mg/kg, ip; type: functional; conditions: route intraperitoneal
[45] = target: Sodium-dependent serotonin transporter (Homo sapiens, UniProt P31645)
Description: Displacement of [3H]paroxetine from 5HTT

[46] = tested on: Mus musculus; experiment: Locomotor activity in CD1 mouse assessed as stimulation at 0.3 mg/kg, ip after 2 hrs relative to control; type: functional; conditions: route intraperitoneal
[47] = tested on: Mus musculus; experiment: Locomotor activity in CD1 mouse assessed as stimulation at 0.3 mg/kg, ip after 3 hrs relative to control; type: functional; conditions: route intraperitoneal
[48] = tested on: Mus musculus; experiment: Locomotor activity in CD1 mouse assessed as stimulation at 0.3 mg/kg, ip after 4 hrs relative to control; type: functional; conditions: route intraperitoneal
[49] = tested on: Mus musculus; experiment: Activity in CD1 mouse assessed as stereotypy at 10 mg/kg, ip after 4 hrs; type: functional, organism-based; set-up: dose 10 mg/kg
[50] = tested on: Mus musculus; experiment: Activity in CD1 mouse assessed as circling at 1 mg/kg, ip after 4 hrs; type: functional, organism-based; set-up: dose 1 mg/kg
[51] = tested on: Mus musculus; experiment: Activity in CD1 mouse assessed as circling at 10 mg/kg, ip after 4 hrs; type: functional, organism-based; set-up: dose 10 mg/kg

Sodium-dependent noradrenaline transporter, sequence (P23975 whole entry): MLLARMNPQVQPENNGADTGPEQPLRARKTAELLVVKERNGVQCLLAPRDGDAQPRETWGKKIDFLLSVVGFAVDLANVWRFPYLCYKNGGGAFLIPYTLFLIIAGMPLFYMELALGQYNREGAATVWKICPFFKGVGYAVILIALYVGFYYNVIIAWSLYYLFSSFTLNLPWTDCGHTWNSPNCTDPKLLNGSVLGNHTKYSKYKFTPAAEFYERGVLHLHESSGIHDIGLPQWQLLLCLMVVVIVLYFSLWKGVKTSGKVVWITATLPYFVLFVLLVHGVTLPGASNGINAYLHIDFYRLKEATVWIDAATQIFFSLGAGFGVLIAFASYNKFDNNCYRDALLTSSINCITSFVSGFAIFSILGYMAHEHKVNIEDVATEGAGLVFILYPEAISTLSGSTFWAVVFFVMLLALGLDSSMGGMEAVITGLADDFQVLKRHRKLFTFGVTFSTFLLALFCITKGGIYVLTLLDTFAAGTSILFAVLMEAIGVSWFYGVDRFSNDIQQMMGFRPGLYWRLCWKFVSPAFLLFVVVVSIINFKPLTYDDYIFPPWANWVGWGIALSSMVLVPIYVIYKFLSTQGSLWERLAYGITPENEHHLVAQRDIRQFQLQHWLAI
Sodium-dependent dopamine transporter, sequence (Q01959 whole entry): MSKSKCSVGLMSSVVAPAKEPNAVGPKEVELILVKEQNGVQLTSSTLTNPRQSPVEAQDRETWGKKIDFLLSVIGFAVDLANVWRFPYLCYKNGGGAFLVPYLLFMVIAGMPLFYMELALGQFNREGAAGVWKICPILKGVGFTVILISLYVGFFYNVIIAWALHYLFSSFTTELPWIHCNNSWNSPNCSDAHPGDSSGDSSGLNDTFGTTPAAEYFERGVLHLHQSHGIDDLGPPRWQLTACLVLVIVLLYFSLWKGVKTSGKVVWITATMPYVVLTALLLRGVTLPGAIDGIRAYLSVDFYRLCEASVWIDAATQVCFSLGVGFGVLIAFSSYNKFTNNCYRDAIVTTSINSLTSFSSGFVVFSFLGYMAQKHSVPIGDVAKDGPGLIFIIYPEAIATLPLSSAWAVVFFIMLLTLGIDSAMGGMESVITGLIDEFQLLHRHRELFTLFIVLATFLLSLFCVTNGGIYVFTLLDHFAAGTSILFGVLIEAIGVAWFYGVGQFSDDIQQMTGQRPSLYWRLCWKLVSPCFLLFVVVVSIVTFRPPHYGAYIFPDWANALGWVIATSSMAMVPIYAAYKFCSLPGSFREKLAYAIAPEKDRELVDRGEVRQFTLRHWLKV
Sodium-dependent serotonin transporter, sequence (P31645 whole entry): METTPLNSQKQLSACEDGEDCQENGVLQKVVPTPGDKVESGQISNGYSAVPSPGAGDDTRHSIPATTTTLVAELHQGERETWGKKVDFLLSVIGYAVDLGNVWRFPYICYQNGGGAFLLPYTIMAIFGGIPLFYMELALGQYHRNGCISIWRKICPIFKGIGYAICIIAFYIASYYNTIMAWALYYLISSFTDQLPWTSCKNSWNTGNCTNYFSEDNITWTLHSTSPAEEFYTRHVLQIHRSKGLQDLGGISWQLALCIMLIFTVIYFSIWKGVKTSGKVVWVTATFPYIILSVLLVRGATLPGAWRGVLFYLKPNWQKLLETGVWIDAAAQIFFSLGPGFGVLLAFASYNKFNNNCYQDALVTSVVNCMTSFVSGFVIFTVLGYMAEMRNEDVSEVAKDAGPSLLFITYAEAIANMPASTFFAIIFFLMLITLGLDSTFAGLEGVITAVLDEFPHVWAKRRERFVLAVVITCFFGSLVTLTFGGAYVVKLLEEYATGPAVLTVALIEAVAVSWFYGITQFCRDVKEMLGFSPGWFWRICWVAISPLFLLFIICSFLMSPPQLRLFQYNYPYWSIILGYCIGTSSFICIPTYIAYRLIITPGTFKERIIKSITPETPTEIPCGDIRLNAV

With COC(=O)[C@H]1C2CCC(C[C@@H]1c1ccccc1)N2C (stereo not given in full) the Activity [1] was 100%, the Activity [2] was -60% and the Activity [3] was 138%. The Activity [4] was “Active”, the Activity [5] was 16% and the Activity [6] was “Active”. For the same compound, the Activity [7] was -27%, the Activity [8] was 69% and the Activity [9] was -14%. It also gave an Activity [10] of 35%, an Activity [11] of 122% and an Activity [12] of 12%. The Activity [13] was -50%, the Activity [14] was 35% and the Activity [15] was “Active”. It also gave an IC50 [16] greater than 10 µM, an Activity [17] of 12% and an Activity [18] of -9%. The Activity [19] was -20%, the Activity [20] was 29% and the Activity [21] was “Active”. It also gave an ED50 [22] of 7.66 mg/kg, an ED50 [23] of 11.7 mg/kg and an Activity [24] of -16%. For the same compound, the Activity [25] was “Active”, the Activity [26] was “Active” and the Activity [27] was 9%. The IC50 [28] was 0.67 µM and the Activity [29] was 67%.

COC(=O)[C@@H]1C2CC[C@H](C[C@@H]1c1ccc(I)cc1)N2C showed an Activity [2] of 2546%, an Activity [30] of 62% and an Activity [31] of 100%. The Activity [32] was “Active”, the Activity [33] was 38% and the Ratio [34] was 4.4. For the same compound, the Activity [9] was 770%, the Activity [35] was “Active” and the Activity [36] was 415%. For the same compound, the Activity [12] was 2099%, the Activity [13] was 794% and the Activity [14] was 1721%. For the same compound, the Activity [37] was -25%, the Activity [38] was 25% and the IC50 [16] was 0.036 µM. For the same compound, the Ki [16] was 0.022 µM, the Activity [18] was 327% and the Activity [39] was “Active”. For the same compound, the Activity [19] was 145%, the Activity [40] was “Active” and the Activity [41] was -12%. The Activity [42] was “Active”, the Activity [43] was “Active” and the Activity [44] was 22%. For the same compound, the ED50 [22] was 0.2 mg/kg, the Ki [45] was 0.00038 µM and the ED50 [23] was 0.4 mg/kg. The Activity [25] was “Active”, the Activity [46] was 1765% and the Activity [27] was 1489%. The Activity [47] was 1289%, the Activity [48] was 900% and the IC50 [28] was 0.0013 µM. For the same compound, the Activity [49] was “Active”, the Activity [50] was “Active” and the Activity [51] was “Active”.
